Measured values taken from publication PMC9518609, “Design and synthesis of new trimethoxylphenyl-linked combretastatin analogues loaded on diamond nanoparticles as a panel for ameliorated solubility and antiproliferative activity” (Journal of Enzyme Inhibition and Medicinal Chemistry, 2022).

Tests used:
Assay type in all cases: cell-based
β-tubulin = β-tubulin polymerisation inhibition assay (Human Beta-tubulin ELISA kit) on MDA-MB-231 cells; conditions: MDA-MB-231 cell line, each compound at its IC50 concentration
Protocol: Trimethoxy phenyl fragment-containing natural stilbenoid-derived molecules, such as Colchicine and CA-4 bind to β-tubulin subunit at the colchicine binding site resulting in inhibition of microtubule assembly and suppression of its formation. […] From the obtained results it can be concluded that the antiproliferative activity of the synthesised triazinone-linked CA-4 derivatives may be derived from the inhibition of microtubule assembly.
Triazinone derivatives 6 and 12 were assessed for their tubulin inhibitory activity according to manufacturer’s instructions using # abcam Human Beta-tubulin simple step ELISA Kit ab245722.
(§1) Part I: Biological Studies
(§2) 4.3. Biological evaluation
(§3) 4.3.1. Cytotoxic activity evaluation
(§4) The cytotoxic actvity of the synthesized derivatives 2a-13e was measured in MDA-MB-231 breast cancer cell line and derivatives 6 and 12 in MCF-10A […].
(§5) Cell viability assay was assessed using MTT assay method. Cells at density of 1 x 104 were seeded in a 96-well plate at 37 °C for 24 h under 5% CO2. After incubation, the cells were treated with different concentrations of the test schiff bases 2a-13e and incubated for 24 h, then 20 µl of MTT solution at 5 mg/mL was applied and incubated for 4 h at 37 °C.
(§6) Dimethyl sulphoxide (DMSO) in volume of 100 µl was added to each well to dissolve the purple formazan that had formed. The color intensity of the formazan product, which represents the growth condition of the cells, is quantified by using an ELISA plate reader (EXL 800, USA) at 570 nm absorbance. The experimental conditions were carried out with at least three replicates, and the experiments were repeated at least three times.
4.3.2. Tubulin inhibitions Assay
(§7) Compounds 6, 12 and CA-4 were evaluated for their tubulin inhibitory activity according to manufacturer’s instructions using # abcam Human Beta-tubulin simplestep ELISA Kit ab245722. MDA-MB-231 cells were trypsinized, counted and seeded at the 2 × 105 into 96-well micro titer plates. […]
(§8) (O.D.) was measured at 450±10 nm using microplate reader (Spectromax Plus 96 well plate […]

MCF-10A = assay: MTT cytotoxic activity against breast MCF-10A cell line; conditions: Homo sapiens, MCF-10A; MTT assay, 24 h treatment
Source text: (§9) All the synthesised compounds were screened for their cytotoxic activity against breast MDA-MB-231 cancer cell line and compounds 6 and 12 against breast MCF-10A cell line taking CA-4 as a positive control for the analysis. The in vitro cytotoxicity results of the prepared compounds were systematised in Table 1. […] Structurally, the prepared molecules contain three structural variations; including rotatable hydrazide derivatives, the core exchange with imidazolone ring, and the ring expansion with triazinone motif. […] It is noticed that directly attached benzene ring to triazinone scaffold (compound 6) or bioisosteric group (thiazolyl ester) as in compound 12, may contribute to the astonishing cytotoxicity against breast MDA-MB-231 cancer cells.
as §1, §2, §3, §4, §5
as §6, with “The experimental conditions were carried out with at least three replicates, and the experiments were repeated at least three times.” left out
as §7, §8

MDA-MB-231 = assay: MTT cytotoxic activity against breast MDA-MB-231 cancer cell line; conditions: Homo sapiens, MDA-MB-231; MTT assay, 24 h treatment
Source text: as §9
To measure the cytotoxic activity of the synthesised derivatives 2a–13e in breast cancer (MDA-MB-231) cell line. MTT assay method was applied to assess cell viability assay. All experimental steps were conducted as reported earlier.
as §1, §2, §3, §4, §5
as §6, with “times. […]” for “times.”

COc1ccc(/C=C\c2cc(OC)c(OC)c(OC)c2)cc1O [CA-4, Combretastatin-A4, reference compound]
% Inhibition of β-tubulin polymerisation (β-tubulin): 87.05 ± 0.08% | IC50 (MCF-10A): 8.91 ± 0.71 µM | IC50 (MDA-MB-231): 0.55 ± 0.09 µM
